Laboratory results reported in US20240300927A1, “AMIDES AS CBL-B INHIBITORS” (Genentech, Inc., priority 2021, published 2024).

Columns and labels:
[1] = target: Cbl-b (Homo sapiens (Human), UniProt Q13191); assay: Cbl-b LCK Ub TR-FRET assay (Cbl-b Lck HTRF); type: biochemical; conditions: for (fold-selectivity): Cbl-b and C-Cbl selectivity, Lck HTRF; for IC50: read-out: Cbl-b Lck HTRF IC50
Description: (§1) Compounds were 3-fold serially diluted in DMSO in a 384-well polypropylene plate (#P-05525-BC; Labcyte) to generate a source plate with 10 concentrations of each compound, top concentration=2 mM. 80 nL of DMSO or compounds were transferred to each well of a black 384-well ProxiPlate (#6008260; PerkinElmer) using a Labcyte Echo. 1× assay buffer (50 mM HEPES pH7.0, 100 mM NaCl, 0.01% BSA, 0.01% Triton-X100, 1 mM DTT), 2× enzyme solution (16 nM Biotin-Cbl-b or 12 nM Biotin-c-Cbl in 1× assay buffer), 2× kinase mixture (120 nM His-LCK, 1 mM ATP, 10 mM MgCl2 in assay buffer) and 2.33× detection mixture (4.66× solution 1: 163 nM Anti-HA-D2 antibody (#610HADAB; PerkinElmer), 27.96 nM Streptavidin-EU (#AD0062; PerkinElmer), 1.398 mM EDTA in 1× assay buffer+4.66× solution 2: 2.796 μM UBE2D2/Methylated-HA-Ubiquitin thioester adduct (BostonBiochem) in 1× assay buffer) were prepared. 4 μL of 2× enzyme solution was added to each well containing compound, briefly centrifuged to mix, and incubated for 60 min at room temperature. 4 μL of 2× kinase mixture was added, briefly centrifuged to mix, and incubated for 90 min. at room temperature. 6 μL of detection mixture was added to all wells and briefly centrifuged before incubating for 20 min at room temperature. Plates were read for TR-FRET using an Envision at excitation 340 nm, emission at 615 and 665 nm, 4 flashes per well. IC50 was generated using no LCK as the low control and DMSO as the high control.
(§2) Cbl-b Lck HTRF data in Table 3 is measured according to Example 25 herein; C-cbl Lck HTRF data is measured according to Example 25 herein.
(§3) SPR and the LCK biochemical assay are orthogonal assays: SPR is a protein binding assay while the LCK assay is an enzyme activity assay. SPR measures compound binding affinity to CBL-B/C-CBL, whereas LCK assay measures compound inhibition of CBL-B/C-CBL ubiquitin transfer activity.

[2] = target: c-Cbl (Homo sapiens (Human), UniProt P22681); assay: C-cbl LCK Ub TR-FRET assay (C-cbl Lck HTRF); type: biochemical
Description: as §1, §2, §3

Sequence of Cbl-b (Q13191 40-426): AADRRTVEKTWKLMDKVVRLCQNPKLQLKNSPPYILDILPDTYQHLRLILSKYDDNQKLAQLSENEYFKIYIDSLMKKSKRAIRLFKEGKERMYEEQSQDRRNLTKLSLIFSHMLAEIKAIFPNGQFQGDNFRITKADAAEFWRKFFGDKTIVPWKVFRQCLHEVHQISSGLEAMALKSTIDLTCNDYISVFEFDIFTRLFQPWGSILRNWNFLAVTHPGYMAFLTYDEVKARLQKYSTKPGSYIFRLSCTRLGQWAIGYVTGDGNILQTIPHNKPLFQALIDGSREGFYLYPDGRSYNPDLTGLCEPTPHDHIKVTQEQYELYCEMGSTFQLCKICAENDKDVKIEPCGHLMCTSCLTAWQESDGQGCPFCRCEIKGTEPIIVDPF
Sequence of c-Cbl (P22681 47-435): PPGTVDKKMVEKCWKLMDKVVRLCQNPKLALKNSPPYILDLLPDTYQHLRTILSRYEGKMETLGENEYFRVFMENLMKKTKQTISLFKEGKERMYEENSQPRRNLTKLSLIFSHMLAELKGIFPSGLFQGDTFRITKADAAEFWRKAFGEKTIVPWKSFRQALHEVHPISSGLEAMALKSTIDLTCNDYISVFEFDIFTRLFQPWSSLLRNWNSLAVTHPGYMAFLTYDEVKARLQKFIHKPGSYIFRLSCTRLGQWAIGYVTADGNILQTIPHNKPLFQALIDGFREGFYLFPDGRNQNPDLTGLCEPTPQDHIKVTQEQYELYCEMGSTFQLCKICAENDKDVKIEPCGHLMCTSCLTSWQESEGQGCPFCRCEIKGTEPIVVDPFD

(fold-selectivity) [1]	IC50 [1] [nM]	IC50 [2] [nM]	Structure (SMILES)
(1.8x)	23	400	Cn1cnnc1[C@H](F)[C@](C)(F)c1cccc(NC(=O)c2cc(CN3CCC4(CC4)C3)cc(C3CC3)n2)c1 [Compound 35, 4-(5-azaspiro[2.4]heptan-5-ylmethyl)-6-cyclopropyl-N-(3-((1S,2R)-1,2-difluoro-1-(4-methyl-4H-1,2,4-triazol-3-yl)propan-2-yl)phenyl)picolinamide]
(1.8x)	140	240	Cn1cnnc1[C@H](F)[C@@](C)(F)c1cccc(NC(=O)c2cc(CN3CCC4(CC4)C3)cc(C3CC3)n2)c1 [Compound 36, 4-(5-azaspiro[2.4]heptan-5-ylmethyl)-6-cyclopropyl-N-(3-((1S,2S)-1,2-difluoro-1-(4-methyl-4H-1,2,4-triazol-3-yl)propan-2-yl)phenyl)picolinamide]
(2.0x)	780	1500	Cn1cnnc1[C@@H](F)[C@@](C)(F)c1cccc(NC(=O)c2cc(CN3CCC4(CC4)C3)cc(C3CC3)n2)c1 [Compound 37, 4-(5-azaspiro[2.4]heptan-5-ylmethyl)-6-cyclopropyl-N-(3-((1R,2S)-1,2-difluoro-1-(4-methyl-4H-1,2,4-triazol-3-yl)propan-2-yl)phenyl)picolinamide]
(1.7x)	25	42	Cn1cnnc1[C@@H](F)[C@](C)(F)c1cccc(NC(=O)c2cc(CN3CCC4(CC4)C3)cc(C3CC3)n2)c1 [Compound 38, 4-(5-azaspiro[2.4]heptan-5-ylmethyl)-6-cyclopropyl-N-(3-((1R,2R)-1,2-difluoro-1-(4-methyl-4H-1,2,4-triazol-3-yl)propan-2-yl)phenyl)picolinamide]
(1.9x)	180	340	Cn1cnnc1[C@H](F)[C@](C)(F)c1cccc(NC(=O)c2cc(CN3CCC4(CC4)C3)nc(C3CC3)n2)c1 [Compound 39, 6-(5-azaspiro[2.4]heptan-5-ylmethyl)-2-cyclopropyl-N-(3-((1S,2R)-1,2-difluoro-1-(4-methyl-4H-1,2,4-triazol-3-yl)propan-2-yl)phenyl)pyrimidine-4-carboxamide]
(2.3x)	880	2100	Cn1cnnc1[C@H](F)[C@@](C)(F)c1cccc(NC(=O)c2cc(CN3CCC4(CC4)C3)nc(C3CC3)n2)c1 [Compound 40, 6-(5-azaspiro[2.4]heptan-5-ylmethyl)-2-cyclopropyl-N-(3-((1S,2S)-1,2-difluoro-1-(4-methyl-4H-1,2,4-triazol-3-yl)propan-2-yl)phenyl)pyrimidine-4-carboxamide]
(2.5x)	4800	12000	Cn1cnnc1[C@@H](F)[C@@](C)(F)c1cccc(NC(=O)c2cc(CN3CCC4(CC4)C3)nc(C3CC3)n2)c1 [Compound 41, 6-(5-azaspiro[2.4]heptan-5-ylmethyl)-2-cyclopropyl-N-(3-((1R,2S)-1,2-difluoro-1-(4-methyl-4H-1,2,4-triazol-3-yl)propan-2-yl)phenyl)pyrimidine-4-carboxamide]
(1.4x)	190	270	Cn1cnnc1[C@@H](F)[C@](C)(F)c1cccc(NC(=O)c2cc(CN3CCC4(CC4)C3)nc(C3CC3)n2)c1 [Compound 42, 6-(5-azaspiro[2.4]heptan-5-ylmethyl)-2-cyclopropyl-N-(3-((1R,2R)-1,2-difluoro-1-(4-methyl-4H-1,2,4-triazol-3-yl)propan-2-yl)phenyl)pyrimidine-4-carboxamide]
(2.3x)	320	740	Cn1cnnc1[C@H](F)[C@](C)(F)c1cccc(NC(=O)c2cc(CN3CC(C)(F)C3)nc(C3CC3)n2)c1 [Compound 43, 2-cyclopropyl-N-(3-((1S,2R)-1,2-difluoro-1-(4-methyl-4H-1,2,4-triazol-3-yl)propan-2-yl)phenyl)-6-((3-fluoro-3-methylazetidin-1-yl)methyl)pyrimidine-4-carboxamide]
(2.1x)	2300	4900	Cn1cnnc1[C@H](F)[C@@](C)(F)c1cccc(NC(=O)c2cc(CN3CC(C)(F)C3)nc(C3CC3)n2)c1 [Compound 44, 2-cyclopropyl-N-(3-((1S,2S)-1,2-difluoro-1-(4-methyl-4H-1,2,4-triazol-3-yl)propan-2-yl)phenyl)-6-((3-fluoro-3-methylazetidin-1-yl)methyl)pyrimidine-4-carboxamide]
(2.5x)	130	330	Cn1cnnc1[C@H](F)C1(c2cccc(NC(=O)c3cc(CN4CC(C)(F)C4)cc(C(F)(F)F)n3)c2)COC1 [Compound 60, (R)-N-(3-(3-(fluoro(4-methyl-4H-1,2,4-triazol-3-yl)methyl)oxetan-3-yl)phenyl)-4-((3-fluoro-3-methylazetidin-1-yl)methyl)-6-(trifluoromethyl)picolinamide]
(2.3x)	180	420	Cn1cnnc1[C@@H](F)C1(c2cccc(NC(=O)c3cc(CN4CC(C)(F)C4)cc(C(F)(F)F)n3)c2)COC1 [Compound 61, (S)-N-(3-(3-(fluoro(4-methyl-4H-1,2,4-triazol-3-yl)methyl)oxetan-3-yl)phenyl)-4-((3-fluoro-3-methylazetidin-1-yl)methyl)-6-(trifluoromethyl)picolinamide]
(1.2x)	120	140	Cn1cnnc1[C@H](F)C1(c2cccc(NC(=O)c3cc(CN4CCC5(CC5)C4)nc(C4CC4)n3)c2)COC1 [Compound 62, (R)-6-((5-azaspiro[2.4]heptan-5-yl)methyl)-2-cyclopropyl-N-(3-(3-(fluoro(4-methyl-4H-1,2,4-triazol-3-yl)methyl)oxetan-3-yl)phenyl)pyrimidine-4-carboxamide]
(1.1x)	170	180	Cn1cnnc1[C@@H](F)C1(c2cccc(NC(=O)c3cc(CN4CCC5(CC5)C4)nc(C4CC4)n3)c2)COC1 [Compound 63, (S)-6-((5-azaspiro[2.4]heptan-5-yl)methyl)-2-cyclopropyl-N-(3-(3-(fluoro(4-methyl-4H-1,2,4-triazol-3-yl)methyl)oxetan-3-yl)phenyl)pyrimidine-4-carboxamide]
(1.6x)	210	340	CN(C)Cc1cc(C(=O)Nc2cccc(C3(Cc4nncn4C)COC3)c2)nc(C(F)(F)F)c1 [Compound 67, 4-((dimethylamino)methyl)-N-(3-(3-((4-methyl-4H-1,2,4-triazol-3-yl)methyl)oxetan-3-yl)phenyl)-6-(trifluoromethyl)picolinamide]
(1.8x)	44	78	Cn1cnnc1CC1(c2cccc(NC(=O)c3cc(CN4CCC5(CC5)C4)cc(C(F)(F)F)n3)c2)COC1 [Compound 98, 4-((5-azaspiro[2.4]heptan-5-yl)methyl)-N-(3-(3-((4-methyl-4H-1,2,4-triazol-3-yl)methyl)oxetan-3-yl)phenyl)-6-(trifluoromethyl)picolinamide]
(0.94x)	230	210	C[C@@H](c1cc(C(=O)Nc2cccc(C3([C@@H](F)c4nncn4C)COC3)c2)nc(C2CC2)c1)N1CC(C)(F)C1 [Compound 112, 6-cyclopropyl-N-(3-(3-((R)-fluoro(4-methyl-4H-1,2,4-triazol-3-yl)methyl)oxetan-3-yl)phenyl)-4-((S)-1-(3-fluoro-3-methylazetidin-1-yl)ethyl)picolinamide]

Structure (SMILES)	(fold-selectivity) [1]	IC50 [1] [nM]	IC50 [2] [nM]
Cn1cnnc1[C@H](F)C1(c2cccc(NC(=O)c3cc(CN)cc(C(F)(F)F)n3)c2)COC1.O=CO [Compound 64, (R)-4-(aminomethyl)-N-(3-(3-(fluoro(4-methyl-4H-1,2,4-triazol-3-yl)methyl)oxetan-3-yl)phenyl)-6-(trifluoromethyl)picolinamide formate]	(1.2x)	200	230
Cn1cnnc1[C@@H](F)C1(c2cccc(NC(=O)c3cc(CN)cc(C(F)(F)F)n3)c2)COC1.O=CO [Compound 65, (S)-4-(aminomethyl)-N-(3-(3-(fluoro(4-methyl-4H-1,2,4-triazol-3-yl)methyl)oxetan-3-yl)phenyl)-6-(trifluoromethyl)picolinamide formate]	(1.2x)	200	230
